From patent publication US20070167424A1, “Aztreonam L-lysine and methods for the preparation thereof” (priority 2003, published 2007)

Tests used:
[1] = Storage stability: impurity content by HPLC after storage; assay type: physicochemical
Procedure: (§1) The Aztreonam L-lysine obtained using these methods was stable in the sense that during 3 months at 2-8° C.:
2. no impurity exceed 0.3 area %.
The impurity content of Aztreonam lysine salt using the HPLC method is determined as follows:
a. Aztreonam Lysine salt sample is dissolved in 0.02 M KH2PO4 buffer solution (pH adjusted 2.0 with 25 w/w % phosphoric acid) diluent,
b. The sample solution (ca. 10 μl) is injected into a 100.0 mm×4.0 mm, 3 μm RP-1 8 HPLC column,
c. Gradient eluting with a mixture of 0.02 M KH2PO4 buffer solution (pH adjusted 3.0 with 25 w/w % phosphoric acid) (A) and acetonitrile (B) according to the following profile:
d. The amounts of each impurity was measured at 230 nm wavelength with a UV detector and appropriate recording device.
e. The amount of each impurity was calculated referring to an Aztreonam working standard at a concentration of […].
In the above method, Aztreonam has a retention time of about 10.2 minutes.

[2] = Storage stability: assay of Aztreonam by HPLC after storage; assay type: physicochemical
Procedure: as §1
1. the assay of Aztreonam was maintained constant in the limit 60-66%; and The assay of Aztreonam Lysine salt using the HPLC method was determined as follows: a. Dissolving Aztreonam Lysine salt sample in a mixture of 0.02 M KH2PO4 buffer solution (pH adjusted 3.0 with 25 w/w % phosphoric acid) and methanol (80:20) diluent, b. Injecting the sample solution (ca. 10 μl) into a 50.0 mm×4.6 mm, 3 μm RP-18 HPLC column, c. Isocratic eluting at 1.5 ml/min with a mixture of 0.02 M KH2PO4 buffer solution (pH adjusted 3.0 with 25 w/w % phosphoric acid) and methanol in a 83:17 v/v % ratio. d. Measuring of the amounts of each impurity at 270 nm wavelength with a UV detector and appropriate recording device. e. Calculating of the assay referring to the Aztreonam working standard at a concentration of 100 [g/ml.
In the above method, Aztreonam has a retention time of about 2.3 minutes

[3] = after storage for three months at about 2-8° C.

C[C@H]1[C@H](NC(=O)/C(=N\OC(C)(C)C(=O)O)c2csc(N)n2)C(=O)N1S(=O)(=O)O.NCCCC[C@H](N)C(=O)O [Aztreonam L-lysine]
no impurity exceed (largest single impurity) ([1]; during 3 months at 2-8° C.): ≤ 0.3 area % | assay of Aztreonam maintained constant in the limit ([2]; during 3 months at 2-8° C.): 60-66%

C[C@H]1[C@H](NC(=O)/C(=N\OC(C)(C)C(=O)O)c2csc(N)n2)C(=O)N1S(=O)(=O)O.NCCCC[C@H](N)C(=O)O [Example 2, Aztreonam L-lysine salt]
does not contain any impurity exceeding [1, 3]: ≤ 0.3 area % | maintains at least about ... of the Aztreonam [2, 3]: at least 63 weight %
